Laboratory results published in US8440660B2 (Santen Pharmaceutical Co., Ltd., priority 2006, dated 2013).

These compounds were tested against T1, Glucocorticoid Receptor (GR) (Homo sapiens, UniProt P04150) (assay: GR receptor competitor assay by fluorescence polarization (Invitrogen GR competitor assay kit, cat No. P2816)). Conditions: 20 μM test compound solution, 10 μL per well plus 5 μL 4×GS1 and 5 μL 4×GR solution; recombinant human GR; 2 to 4 hours at room temperature; a ratio of 100% or more is indicated by 100%; read-out: GR Binding ratio (%).
T1 construct: purchased Invitrogen P2816
T1 sequence (P04150 1-777): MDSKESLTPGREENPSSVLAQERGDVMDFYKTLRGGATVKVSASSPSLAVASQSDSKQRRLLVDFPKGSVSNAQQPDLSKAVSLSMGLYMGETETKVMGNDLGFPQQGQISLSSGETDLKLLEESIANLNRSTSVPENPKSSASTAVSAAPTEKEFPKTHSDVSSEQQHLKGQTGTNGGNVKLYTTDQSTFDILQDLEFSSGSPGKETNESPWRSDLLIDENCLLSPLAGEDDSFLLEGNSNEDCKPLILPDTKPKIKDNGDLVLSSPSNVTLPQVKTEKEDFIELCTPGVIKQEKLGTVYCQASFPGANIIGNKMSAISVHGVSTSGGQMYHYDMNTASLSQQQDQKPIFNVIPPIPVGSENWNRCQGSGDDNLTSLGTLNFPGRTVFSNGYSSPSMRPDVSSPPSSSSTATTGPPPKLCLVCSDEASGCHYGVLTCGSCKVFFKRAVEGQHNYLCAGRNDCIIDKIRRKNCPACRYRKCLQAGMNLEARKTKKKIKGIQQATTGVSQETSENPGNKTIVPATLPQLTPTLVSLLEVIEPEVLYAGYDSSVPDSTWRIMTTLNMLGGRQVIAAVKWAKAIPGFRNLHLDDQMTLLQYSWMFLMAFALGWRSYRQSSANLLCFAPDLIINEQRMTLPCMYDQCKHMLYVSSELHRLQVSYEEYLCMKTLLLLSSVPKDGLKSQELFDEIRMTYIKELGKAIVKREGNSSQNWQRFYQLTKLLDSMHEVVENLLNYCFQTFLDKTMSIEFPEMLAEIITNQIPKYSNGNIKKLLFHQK
Experimental: A detailed explanation of this matter will be described in the section of “Pharmacological Test” in Examples described below. In order to find the usefulness of the present compound as a pharmaceutical, a glucocorticoid receptor competitor assay was carried out by a fluorescence polarization method by using a glucocorticoid receptor competitor assay kit (manufactured by Invitrogen, cat No P2816) to study the glucocorticoid receptor binding activity of the present compound.
1. Evaluation Test for Binding Activity to Glucocorticoid Receptor (Hereinafter Referred to as “GR”)
In order to evaluate a binding activity to GR, a receptor competitor assay was carried out by a fluorescence polarization method. In the assay, a GR competitor assay kit (manufactured by Invitrogen, cat No. P2816) was used, and a procedure was carried out according to the protocol attached to the kit. Hereinafter, the specific method will be described.
(Preparation of Reagents)
GR screening buffer: A buffer containing 10 mM potassium phosphate (pH 7.4), 20 mM sodium molybdate (Na2MoO4), 0.1 mM ethylene diamine tetraacetic acid (EDTA), 5 mM dithiothreitol (DTT), 0.1 mM stabilizing peptide and 2% dimethylsulfoxide was prepared.
4×GS1 solution: Fluormone™ GS1, which is a fluorescent glucocorticoid ligand, was diluted with GR screening buffer, whereby a 4 nM solution was prepared.
4×GR solution: Recombinant human GR was diluted with GR screening buffer, whereby a 16 nM solution was prepared.
(Preparation of Test Compound Solution)
After a test compound was dissolved in dimethylsulfoxide, the resulting solution was diluted with GR screening buffer, whereby a 20 μM test compound solution was prepared.
(Test Method and Measurement Method)
1) The test compound solution was added in an amount of 10 μL into each well of a 384-well plate, and then, 4×GS1 solution and 4×GR solution were added in an amount of 5 μL into each well, respectively.
2) The plate was incubated in a dark place at room temperature for 2 to 4 hours.
3) By using a multimode plate reader, Analyst™ HT (manufactured by LJL Biosystems), fluorescence polarization of each well was measured. As the blank, a well containing GR screening buffer in place of the test compound and 4×GS1 solution was used.
4) The same procedure as that in the above 1) to 3) was carried out except that GR screening buffer was used in place of the test compound solution, and the obtained result was taken as the negative control.
5) The same procedure as that in the above 1) to 3) was carried out except that 2 mM dexamethasone was used in place of the test compound solution, and the obtained result was taken as the positive control.
(Calculation Equation of GR Binding Ratio)
A GR binding ratio (%) was calculated from the following equation. GR binding ratio (%)=100×[1−(fluorescence polarization of test compound solution−fluorescence polarization of positive control solution)/(fluorescence polarization of negative control solution−fluorescence polarization of positive control solution)] (Test Results and Discussion)
With `COc1cc(OC(=O)c2cccnc2)ccc1-c1ccc2c(c1COc1cc([N+](=O)[O-])ccc1C)C(C)=CC(C)(C)N2` [Compound 1-94, 6-[2-Methoxy-4-(pyridin-3-ylcarbonyloxy)phenyl]-5-(2-methyl-5-nitrophenoxymethyl)-2,2,4-trimethyl-1,2-dihydroquinoline] the inhibition at 10 µM was 100%.
With `CCS(=O)(=O)Oc1ccc(-c2ccc3c(c2COc2cc(F)ccc2C)C(C)=CC(C)(C)N3)c(OC)c1` [Compound 4-12, 6-(4-Ethylsulfonyloxy-2-methoxyphenyl)-5-(5-fluoro-2-methylphenoxymethyl)-2,2,4-trimethyl-1,2-dihydroquinoline] the inhibition at 10 µM was 92%.
Compound `COc1cc(OC(=O)c2cn(C(=O)OC(C)(C)C)cn2)ccc1-c1ccc2c(c1COc1cc(F)ccc1C)C(C)=CC(C)(C)N2` [Compound 1-53, 6-[4-(1-t-Butoxycarbonylimidazol-4-ylcarbonyloxy)-2-methoxyphenyl]-5-(5-fluoro-2-methylphenoxymethyl)-2,2,4-trimethyl-1,2-dihydroquinoline] has an inhibition at 10 µM of 100%.
With `COc1cc(OC(=O)C(C)C)ccc1-c1ccc2c(c1COc1cc(F)ccc1C)C(C)=CC(C)(C)N2` [Compound 1-20, 5-(5-Fluoro-2-methylphenoxymethyl)-6-(4-isobutyryloxy-2-methoxyphenyl)-2,2,4-trimethyl-1,2-dihydroquinoline] the inhibition at 10 µM was 100%.
In the case of `COc1cc(OC(=O)Nc2ccccc2Cl)ccc1-c1ccc2c(c1COc1cc(F)ccc1C)C(C)=CC(C)(C)N2` [Compound 6-3, 6-[4-(2-Chlorophenylaminocarbonyloxy)-2-methoxyphenyl]-5-(5-fluoro-2-methylphenoxymethyl)-2,2,4-trimethyl-1,2-dihydroquinoline], the inhibition at 10 µM is reported as 98%.
With `COc1cc(OC(=O)c2cncs2)ccc1-c1ccc2c(c1COc1cc(F)ccc1C)C(C)=CC(C)(C)N2` [Compound 1-55, 5-(5-Fluoro-2-methylphenoxymethyl)-6-[2-methoxy-4-(thiazol-5-ylcarbonyloxy)phenyl]-2,2,4-trimethyl-1,2-dihydroquinoline] the inhibition at 10 µM was 100%.
For `COc1ccc([N+](=O)[O-])cc1OCc1c(-c2ccc(OC(=O)N3CCOCC3)cc2OC)ccc2c1C(C)=CC(C)(C)N2` [Compound 6-28, 6-[2-Methoxy-4-(morpholin-4-ylcarbonyloxy)phenyl]-5-(2-methoxy-5-nitrophenoxymethyl)-2,2,4-trimethyl-1,2-dihydroquinoline], the inhibition at 10 µM was 100%.
`COc1ccccc1C(=O)Oc1ccc(-c2ccc3c(c2COc2cc(F)ccc2C)C(C)=CC(C)(C)N3)c(OC)c1` [Compound 1-8, 5-(5-Fluoro-2-methylphenoxymethyl)-6-[2-methoxy-4-(2-methoxybenzoyloxy)phenyl]-2,2,4-trimethyl-1,2-dihydroquinoline] gave an inhibition at 10 µM of 100%.
For `COc1ccc([N+](=O)[O-])cc1OCc1c(-c2ccc(OS(=O)(=O)C3CC3)cc2OC)ccc2c1C(C)=CC(C)(C)N2` [Compound 4-19, 6-(4-Cyclopropylsulfonyloxy-2-methoxyphenyl)-5-(2-methoxy-5-nitrophenoxymethyl)-2,2,4-trimethyl-1,2-dihydroquinoline], the inhibition at 10 µM was 98%.
Compound `COc1cc(OC(=O)Cc2cccnc2)ccc1-c1ccc2c(c1COc1cc(F)ccc1C)C(C)=CC(C)(C)N2` [Compound 1-64, 5-(5-Fluoro-2-methylphenoxymethyl)-6-[2-methoxy-4-(pyridin-3-ylacetoxy)phenyl]-2,2,4-trimethyl-1,2-dihydroquinoline] has an inhibition at 10 µM of 100%.
With `COc1cc(OS(=O)(=O)C(C)C)ccc1-c1ccc2c(c1COc1cc([N+](=O)[O-])ccc1C)C(C)=CC(C)(C)N2` [Compound 4-26, 6-(4-Isopropylsulfonyloxy-2-methoxyphenyl)-5-(2-methyl-5-nitrophenoxymethyl)-2,2,4-trimethyl-1,2-dihydroquinoline] the inhibition at 10 µM was 100%.
`COc1cc(OC(=O)c2ccoc2)ccc1-c1ccc2c(c1COc1cc(F)ccc1C)C(C)=CC(C)(C)N2` [Compound 1-34, 5-(5-Fluoro-2-methylphenoxymethyl)-6-[4-(furan-3-ylcarbonyloxy)-2-methoxyphenyl]-2,2,4-trimethyl-1,2-dihydroquinoline] was tested, and the inhibition at 10 µM was 100%.
